Experimental data taken from patent US11384381B2, “Reaction accelerating agent” (Kikkoman Corporation, priority 2016, dated 2022).

System: fructosyl peptide oxidase (FPOX-CET)
Test: Acceleration of fructosyl valyl histidine detection reaction with small amount of fructosyl peptide oxidase (Example 7)
Format: biochemical
Conditions: 0.04% (w/v) compound, 0.48 U/ml FPOX-CET; for effect of accelerating the fructosyl valyl histidine detection reaction: versus not added; for Degree of progression of reaction (%) after 7.5 minutes / Degree of progression of reaction (%) after 10 minutes: fructosyl valyl histidine detection reaction, ΔA/ΔA100%; for Degree of progression of reaction (%) after 7.5 minutes: 2.5 minutes after addition of second reagent, not added: 57; for Degree of progression of reaction (%) after 10 minutes: 5 minutes after addition of second reagent, not added: 81
Protocol: Next, in this Example, the degree of acceleration of fructosyl valyl histidine detection reaction by the compound of the present invention was determined using a small amount of fructosyl peptide oxidase.
A reagent for fructosyl valyl histidine measurement having the following composition was prepared, and the measurement of fructosyl valyl histidine was carried out using Bio Majesty JCA-BM 1650 (manufactured by JEOL Ltd.).
32 μM fructosyl valyl histidine (manufactured by Kikkoman Biochemifa Company)
30 mM MOPS-NaOH buffer solution, pH 7.0
0.2% (v/v) Triton X-100 (manufactured by Wako Pure Chemical Industries, Ltd.)
10 U/ml peroxidase PEO-301 (Toyobo Co., Ltd.)
0.023 mM 10-(carboxymethylaminocarbonyl)-3,7-bis(dimethylamino)phenothiazine sodium (DA-67, manufactured by Wako Pure Chemical Industries, Ltd.)
0.04% (w/v) of the compound of Comparative Example 2, any one compound of the present invention, or compound-free (Comparative Example 1) ion-exchange water as shown in Table 1
10 mM MOPS-NaOH buffer solution, pH 7.0
0.48 U/ml FPOX-CET (manufactured by Kikkoman Biochemifa Company)
8 μl of the sample was added to 96 μl of the first reagent-B, and the mixture was incubated at 37° C. for 5 minutes. Then, 24 μl of the second reagent-D was added thereto, and the quantitative reaction of hydrogen peroxide resulting from the oxidation of fructosyl valyl histidine was allowed to progress at 37° C. for 5 minutes. The absorbance (A694 and A751) of the reaction solution for light at wavelengths of 694 nm and 751 nm was measured over time for 10 minutes after the mixing of the sample with the first reagent-B to determine the value of subtraction of A751 from A694. i.e., the value A694/751. Subsequently, ΔA was calculated by subtracting, from A694/751, the value of (104/128) times A694/751 4.8 minutes after the mixing of the sample with the first reagent-B. Incidentally, 5 minutes after the mixing of the sample with the first reagent-B represents the time immediately before the addition of the second reagent-D.
Next, ΔA calculated in this Example was divided by […] defined in Example 6 to calculate the degree of progression of fructosyl valyl histidine detection reaction. The degree of progression of fructosyl valyl histidine detection reaction 7.5 and 10 minutes after the mixing of the sample with the first reagent-B (in other words, 2.5 and 5 minutes after the addition of the second reagent-D) is shown in Table 4.

Cc1nn(-c2cc(S(=O)(=O)[O-])ccc2Cl)c(O)c1N=Nc1ccccc1.[Na+] [Acid Yellow 34]
effect of accelerating the fructosyl valyl histidine detection reaction: effect of accelerating the fructosyl valyl histidine detection reaction | Degree of progression of reaction (%) after 7.5 minutes: 62% | Degree of progression of reaction (%) after 10 minutes: 86%

O=C(O)c1cc(N=Nc2ccc3cc(S(=O)(=O)O)ccc3c2)ccc1O.[Na] [Chrome Yellow]
effect of accelerating the fructosyl valyl histidine detection reaction: effect of accelerating the fructosyl valyl histidine detection reaction | Degree of progression of reaction (%) after 7.5 minutes: 62% | Degree of progression of reaction (%) after 10 minutes: 86%

COc1cc(N=Nc2cccc(S(=O)(=O)[O-])c2)ccc1NC(=O)Nc1ccc(N=Nc2ccc(O)c(C(=O)[O-])c2)cc1.[Na+].[Na+] [Direct Yellow 44]
effect of accelerating the fructosyl valyl histidine detection reaction: effect of accelerating the fructosyl valyl histidine detection reaction | Degree of progression of reaction (%) after 7.5 minutes: 66% | Degree of progression of reaction (%) after 10 minutes: 88%

Xylene Fast Yellow 2G
effect of accelerating the fructosyl valyl histidine detection reaction: effect of accelerating the fructosyl valyl histidine detection reaction | Degree of progression of reaction (%) after 7.5 minutes: 63% | Degree of progression of reaction (%) after 10 minutes: 96%
